# B1: OVA: OVA protein (EndoFit Ovalbumin: from InvivoGen), model antigen (protein, UniProt P01012 2-386, looked up)
# Ovalbumin: GSIGAASMEFCFDVFKELKVHHANENIFYCPIAIMSALAMVYLGAKDSTRTQINKVVRFDKLPGFGDSIEAQCGTSVNVHSSLRDILNQITKPNDVYSFSLASRLYAEERYPILPEYLQCVKELYRGGLEPINFQTAADQARELINSWVESQTNGIIRNVLQPSSVDSQTAMVLVNAIVFKGLWEKAFKDEDTQAMPFRVTEQESKPVQMMYQIGLFRVASMASEKMKILELPFASGTMSMLVLLPDEVSGLEQLESIINFEKLTEWTSSNVMEERKIKVYLPRMKMEEKYNLTSVLMAMGITDVFSSSANLSGISSAESLKISQAVHAAHAEINEAGREVVGSAEAGVDAASVSEEFRADHPFLFCIKHIATNAVLFFGRCVSP
# Key:
# [1] = Release test: measurement of leakage
# Protocol: The term “Membrane disruptive function” denotes the function to bring about release in the release test. The release test described in this specification is a test comprising or consisting of adding liposomes (dispersion) encapsulating an aqueous solution containing a quenching substance and a fluorescent substance and a dispersion of a sample for evaluation to a properly pH-adjusted aqueous solution, incubating the resulting aqueous solution at 37° C. for 90 minutes or 30 minutes, and measuring the fluorescence intensity of the incubated aqueous solution. This method permits the measurement of the amount of the fluorescent substance which has been released from the liposomes. […] The release test will be described in more detail in the Examples.
# The evaluation was performed with the help of EYPC liposomes which contain Pyranine (as a fluorescent substance) and DPX (as a quencher).
# EYPC (3000 nmol) dissolved in chloroform was measured and placed in a 10-mL eggplant-shaped flask, and the EYPC was made into thin film with a rotary evaporator. To the flask was added a Pyranine solution (500 μL), which is composed of Pyranine (35 mM), DPX (50 mM), and MES (25 mM), and has pH 7.4. The thin film in the flask was dispersed with the help of an ultrasonic irradiator (USC-J). The resulting dispersion was passed through a porous polycarbonate film having a pore diameter of 100 nm with the help of an extruder, so as to make the particle size uniform. The resulting dispersion underwent substitution of the outer aqueous layer with the help of MES Buffer and G100 column. Thus, there was obtained a dispersion of EYPC liposomes encapsulating the fluorescent substance. The concentration of the lipid was determined with the help of phospholipid C-test Wako, and then it was adjusted with MES Buffer so that phospholipid became 1.0 mmol/L.
# The dispersion of EYPC liposomes (with its concentration adjusted) in an amount of 20 μL and the dispersion of a sample for evaluation in an amount of 20 μL were added to MES Buffer (with its pH adjusted) in an amount of 2960 μL. The resulting mixture underwent incubation at 37° C. for 90 or 30 minutes. Values resulting from incubation for 90 minutes are adopted in the Examples, unless otherwise indicated.
# The leakage was calculated assuming that the sheer dispersion of EYPC liposomes has 0% and the dispersion of EYPC liposomes incorporated with 30 μL of 10-fold diluted Triton-X100 has 100%. Specifically, the leakage was calculated from the following formula, L denotes the intensity of fluorescence measured, L0 denotes the intensity of fluorescence of the sheer dispersion of EYPC liposomes containing the fluorescent substance, and L100 denotes the intensity of fluorescence of the dispersion of EYPC liposomes incorporated with Triton-X100.
# [2] = test system: CD80; test: Evaluation of stimulus to activate innate immune system: expression of CD80 in cultured mice spleen cells (flow cytometry); details: for CD80 MFI, Amphipathic substance: amphipathic substance alone; for fluorescence intensity of CD80PE compared with PBS: solution (5 μL) of sample added alone: peptide, OVA 800 μg/mL, DLPC 1000 nmol/mL, deoxycholic acid 1600 nmol/mL, FIG. 8(B)
# Protocol: The evaluation of stimulus to activate innate immune system was performed as follows.
# A spleen was harvested from C57BL/6N mice. The harvested spleen was injected with 500 μL of collagenase solution, 2 mg/mL (prepared with RPMI medium) followed by incubation at 37° C. for 30 minutes. The spleen was made into cell suspension by treatment with BD Falcon cell strainer. The cells underwent hemolysis with RBC lysis buffer, followed by washing with RPMI medium. The cells were dispersed into RPMI medium, and the number of cells was counted. The cells were used for the subsequent procedure.
# The cells were inoculated into a 96-well dish such that 1.0×10^6 cells/100 μL. The cell dispersion was given 100 μL of RPMI medium containing a dispersion of different kind, followed by incubation overnight. These procedures were performed by using serum-free RPMI medium.
# The cells were recovered and washed with BD stain buffer. Then, the cells underwent incubation together with Anti-CD11cFITC, 0.25 μg/100 μL (4° C. for 30 minutes), so that the cells were stained. After washing, the cells underwent again incubation with Anti-CD80PE, Anti-CD86PE, or Anti-CD40PE, 0.25 μg/100 μL (4° C. for 30 minutes), so that the cells were stained. After washing at least more than three times, the cells were evaluated by using the flow cytometer (Cytomics FC500, Software: CXP software ver. 2).
# [3] = test system: CTL (IFNγ-secreting cells/total CD8 positive cells); test: Evaluation of CTL induction rate, ICS method, after immunization of mice; assay type: in vivo, C57BL/6N mice; parameters: key to CTL induction rate, Low MPL / CTL induction rate, High MPL: ratio of IFNγ-secreting cells to total CD8 positive cells; details: for CTL induction rate, High MPL: high MPL (22.7); for CTL induction rate, High MPL / CTL induction rate, Low MPL: n=3; for CTL induction rate, Low MPL: low MPL (0.0227)
# Protocol: Administration (100 μL/head) was performed by subcutaneous injection at one position on the back under anesthesia. […] For evaluation of cell-mediated immunity, administration was performed once and the assay was performed seven days after administration. For evaluation of humoral immunity, administration was performed twice. The second administration was performed 14 days after the first administration, and assay was performed seven days after the second administration.
# The mice were sacrificed on the seventh day after the last administration and had its spleen harvested. The spleen was given RPMI medium (3.0 mL) containing 10% serum and then treated by the BD Falcon cell strainer. Thus there was obtained a suspension of cells. […] The cells were dispersed into RPMI medium containing 10% serum. The number of cells was counted. Thus there was obtained a dispersion of spleen cells.
# For restimulation of the antigen, 10% serum-containing RPMI medium (100 μL) containing OVA peptide (40 μg/mL) was added, followed by incubation for three hours. Then, BD GolgiPlug was added such that its concentration was 0.2 μL/100 μL. Cell culture was performed overnight. In the case where the restimulation was not given, a 10% serum-containing RPMI medium not containing OVA peptide was used.
# After washing, the cells were stained with Anti-CD8aPE (at 4° C. for 30 minutes), followed by washing again. Then the cells were permeabilized with Cytofix/Cytoperm. After washing, the cells were stained with Anti-IFNγFITC (at 4° C. for 30 minutes). […] CTL induction rate was calculated in terms of the ratio between the IFNγ secreting cells and the total CD8 positive cells.
# It is known that MPL activates innate immune system and functions as an adjuvant even when used alone. It is also known that MPL induces cell-mediated immunity. Thus, a comparison was made as to the induction of cell-mediated immunity between MPL used alone and MPL used in combination with a pH-sensitive carrier in the form of the adjuvant composition. Each of the MPL and the adjuvant composition is administered together with an antigen. […] The above-mentioned solution or dispersion was subcutaneously administered once to the back of C57BL/6N mice, and the CTL induction rate was obtained according to the ICS method. The CTL induction rate is expressed in terms of the ratio of the IFNγ-secreting cells to the total CD8 positive cells in a specific area which is hardly affected by dead cells (IFNγ-secreting cells/total CD8 positive cells).
# [4] = Table 2, pH-sensitive substance alone
# [5] = antigen peptide 3.2 μg, DLPC, deoxycholic acid (160 nmol), subcutaneous once
# [6] = antigen peptide 16 μg, DLPC, deoxycholic acid (160 nmol), subcutaneous once
# [7] = antigen peptide 80 μg, DLPC, deoxycholic acid (160 nmol), subcutaneous once
# [8] = antigen peptide 400 μg, DLPC, deoxycholic acid (160 nmol), subcutaneous once
Molecule,"leakage, Alone, pH 5.0 [1, 4]","leakage, Alone, pH 7.4 [1, 4]","leakage, Alone, pH 5.0 ([1]; Table 1, substance alone)","leakage, Alone, pH 7.4 ([1]; Table 1, substance alone)","CD80 MFI, Amphipathic substance [2]",also measured
CC(CCC(=O)NCC(=O)O)C1CCC2C3CCC4CC(O)CCC4(C)C3CC(O)C12C (stereo not shown) [Glycodeoxycholic acid],9.8 ± 0.8%,1.9 ± 1.2%,,,,
sorbitan oleic acid ester [Span 80],,,18.1 ± 1.0%,6.1 ± 0.6%,39.6 ± 1.8%,
"CCCCCCCCCCCC(=O)OC[C@H](COP(=O)([O-])OCC[N+](C)(C)C)OC(=O)CCCCCCCCCCC [DLPC, 1,2-dilauroyl-sn-glycero-3-phosphatidylcholine]",,,5.5 ± 0.9%,1.8 ± 1.2%,38.5 ± 2.9%,fluorescence intensity of CD80PE compared with PBS [2]: remained unchanged from that in the case where PBS was added
"CCCCCCCCCCCC(=O)OCCOCCOCCOCCOCCOCCOCCOCCOCCOCCOCCOCCOCCOCCOCCOCCOCCOCCOCCOCCOCC(OCCOCCOCCOCCOCCOCCOCCOCCOCCOCCOCCOCCOCCOCCOCCOCCOCCOCCOCCOCCO)C1OCC(OCCOCCOCCOCCOCCOCCOCCOCCOCCOCCOCCOCCOCCOCCOCCOCCOCCOCCOCCOCCO)C1OCCOCCOCCOCCOCCOCCOCCOCCOCCOCCOCCOCCOCCOCCOCCOCCOCCOCCOCCOCCO (stereo not shown) [Tween 20, polyoxyethylene sorbitan monolaurate ester]",,,74.0 ± 2.0%,70.4 ± 3.9%,38.0 ± 3.2%,
CC1(C)[C@@H](O[C@H]2O[C@H](C(=O)O)[C@@H](O)[C@H](O)[C@H]2O[C@@H]2O[C@H](C(=O)O)[C@@H](O)[C@H](O)[C@H]2O)CC[C@]2(C)[C@H]3C(=O)C=C4[C@@H]5C[C@@](C)(C(=O)O)CC[C@]5(C)CC[C@@]4(C)[C@]3(C)CC[C@@H]12 [Glycyrrhizinic acid],16.7 ± 2.9%,4.2 ± 1.2%,,,,
Monophosphoryl lipid A [MPL alone],,,,,,"leakage at a low pH value compared with PBS alone ([1]; MPL (dispersed in PBS or DMSO) in an amount equivalent to MPL content 0.227, FIG. 9(A)): equivalent to that in the case where PBS was used alone; CTL induction rate (%), Adjuvant composition (with antigen not restimulated) ([3]; DLPC with pH-sensitive compound 160 nmol, MPL content 0.227, OVA (80 μg), dispersion, n=1, antigen not restimulated): 0.14%; CTL induction rate (%), Adjuvant composition ([3]; DLPC with pH-sensitive compound 160 nmol, MPL content 0.227, OVA (80 μg), dispersion, n=1, antigen restimulated): 0.25%; CTL induction rate by adjuvant composition (%), Antigen: OVA ([3]; antigen OVA (80 μg), DLPC, MPL content 0.227, deoxycholic acid amount (nmol) varied, dispersion, n=1): 0.18%; CTL induction rate by adjuvant composition (%), Antigen: peptide ([3]; antigen peptide (80 μg), DLPC, MPL content 0.227, deoxycholic acid amount (nmol) varied, dispersion, n=1): 0.22%; CTL induction rate ([3]; antigen peptide (80 μg), MPL content 0.227 or equivalent, DLPC, deoxycholic acid (160 nmol), subcutaneous once, FIGS. 3 and 4): 0.27%; CTL induction rate, High MPL [3, 5]: 0.45; CTL induction rate, High MPL [3, 6]: 0.36; CTL induction rate, High MPL [3, 7]: 0.37; CTL induction rate, High MPL [3, 8]: 0.58; CTL induction rate, Low MPL [3, 5]: 0.14; CTL induction rate, Low MPL [3, 6]: 0.31; CTL induction rate, Low MPL [3, 7]: 0.26; CTL induction rate, Low MPL [3, 8]: 0.46; CTL induction rate (%), Amphipathic substance-MPL ([3]; mixed thin film of amphipathic substance (100 nmol) and MPL (0.227) dispersed in antigen solution, OVA (80 μg), n=1): 0.20%"
"Cc1c(C)c2c(c(C)c1O)CCC(C)(CCCC(C)CCCC(C)CCCC(C)C)O2 (racemic) [α-tocopherol, DL-α-tocopherol]",,,10.6 ± 1.3%,5.5 ± 0.3%,43.8 ± 4.9%,
C[C@H](CCC(=O)O)[C@H]1CC[C@H]2[C@@H]3C[C@H](O)[C@@H]4C[C@H](O)CC[C@]4(C)[C@H]3CC[C@]12C [Hyodeoxycholic acid],12.6 ± 0.4%,4.2 ± 0.9%,,,,
C[C@H](CCC(=O)O)[C@H]1CC[C@H]2[C@@H]3[C@H](O)C[C@@H]4C[C@H](O)CC[C@]4(C)[C@H]3CC[C@]12C [Chenodeoxycholic acid],14.1 ± 0.9%,0.7 ± 0.5%,,,,
"CCCCCCCCCC(=O)OC[C@H](COP(=O)([O-])OCC[N+](C)(C)C)OC(=O)CCCCCCCCC [DDPC, 1,2-didecanoyl-sn-glycero-3-phosphatidylcholine]",,,37.1 ± 1.3%,17.4 ± 0.1%,36.5 ± 1.1%,
B1,,,,,,fluorescence intensity of CD80PE compared with PBS [2]: remained unchanged from that in the case where PBS was added

# From patent publication US11000586B2, “Adjuvant composition, vaccine composition containing the same, and method for producing both of them” (TERUMO KABUSHIKI KAISHA, priority 2013, dated 2021)
